From patent publication US12583852B2, “Heterocycle derivative” (JW PHARMACEUTICAL CORPORATION, priority 2018, dated 2026)

Tested on: human dermal papilla cells
Experiment: Promotion of proliferation of human dermal papilla cells (CellTiter-Glo Luminescent cell viability assay)
Assay type: cell-based
Details: human dermal papilla cells (ScienCell, 2499); drug 0 to 30 μM; 48 hours; CellTiter-Glo luminescence; compared to DMSO-treated control group
Experimental: The effect of promoting cell proliferation by the drug was analyzed using human dermal papilla cells (ScienCell, 2499). Human dermal papilla cells cultured using Mesenchymal Stem Cell Medium (ScienCell, 7501) medium were seeded at a density of 3×10^3 cells/well and in a volume of 100 μl in a 96-well plate, incubated overnight at 37° C. and 5% CO2, treated with the drug at different concentrations ranging from 0 to 30 μM in a volume of 100 μL, and incubated at 37° C. and 5% CO2 for 48 hours. CellTiter-Glo Luminescent cell viability assay was performed according to the manufacturer's protocol (Promega, G7573) to detect cell proliferation. Luminescence was measured using an Envision 2102 multilabeled reader (PerkinElmer) equipment, and the cell proliferation rate was analyzed by the activity of the drug-treated group compared to the DMSO-treated group (control group), which is a solvent of the drug.

Compound | Maximum DP cell proliferation (%)
Nc1n[nH]c2nc(Nc3cccc(C(F)F)c3F)ncc12 [Example 115, N6-(3-(difluoromethyl)-2-fluorophenyl)-1H-pyrazolo[3,4-d]pyrimidine-3,6-diamine] | 3.7%
3-chloro-N-(2,3-dihydro-1H-inden-4-yl)-5-fluoro-1H-pyrazolo[3,4-b]pyridin-6-amine [Compound 8] | 7.9%
